# Data taken from patent US12018059B2, “Human amylin analog polypeptides and methods of use” (Intarcia Therapeutics, Inc., priority 2018, dated 2024).
# Like-named read-outs stand apart in the source and are kept apart here. Starred links: 1 amine or outer side, 2 acyl side, 3 side chain; linkers in the order of their positions; H or OH if unused. Positions of bridges follow the written chain, without caps; N, C: chain ends. Non-standard residues stand in square brackets, D forms with d. Residues, ends and D or L forms follow the SMILES beside them. Groups on a side chain read outwards from the residue. *: point of attachment. X2 = O=C(O)CCCCCCCCCCCCCCCCC(=O)N[C@@H](CCC(=O)NCOCCOCC(=O)NCOCCOCC(=O)*)C(=O)O; C20 diacid = O=C(O)CCCCCCCCCCCCCCCCCCC(=O)*; γGlu = O=C(O)[C@H](CCC(=O)[*:2])N[*:1]; Palmitoyl = CCCCCCCCCCCCCCCC(=O)*; AEEA = NCCOCCOCC(=O)O
# What was measured:
# [1] = molecular target: T1, human calcitonin receptor (hCTR) (Homo sapiens, UniProt P30988); assay: cAMP accumulation functional assay in HEK293-CNG cells expressing hCTR; assay type: cell-based
# T1 sequence (P30988 25-474): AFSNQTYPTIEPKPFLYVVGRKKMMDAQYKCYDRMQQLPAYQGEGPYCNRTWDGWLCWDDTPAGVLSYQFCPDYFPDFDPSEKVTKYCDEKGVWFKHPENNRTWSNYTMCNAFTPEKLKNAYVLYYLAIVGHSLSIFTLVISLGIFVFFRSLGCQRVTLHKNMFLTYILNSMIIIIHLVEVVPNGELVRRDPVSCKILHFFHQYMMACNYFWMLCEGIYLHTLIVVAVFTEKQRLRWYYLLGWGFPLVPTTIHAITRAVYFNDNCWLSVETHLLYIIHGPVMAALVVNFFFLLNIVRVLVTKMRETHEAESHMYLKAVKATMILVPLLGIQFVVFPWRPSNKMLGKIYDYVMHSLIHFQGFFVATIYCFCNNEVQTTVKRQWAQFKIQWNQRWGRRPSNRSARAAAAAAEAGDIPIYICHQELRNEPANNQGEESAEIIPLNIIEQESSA
# Description: (§1) In the presence of the non-specific cAMP/cGMP phosphodiesterase inhibitor 3-isobutyl-1-methylxanthine (IBMX), accumulating cAMP can be measured in vitro using common detection methods. Thus, it is possible to estimate an in vitro potency (pEC50) for peptides activating each of these receptors using fit dose-response curves for cAMP accumulation.
# (§2) Cells were carried in growth media for no more than 10 passages prior to testing.
# (§3) Peptides were serially diluted in the same buffer as above for each given assay condition. Two assay control solutions consisting of 50 mcM forskolin (cAMP system maximum) or assay buffer only (cAMP system minimum) were also prepared in the appropriate stimulation buffers. Five microliters of each peptide-concentration, or assay control was added to triplicate wells and incubated for thirty minutes at room temperature. During this incubation step a 4× europium labelled cAMP tracer solution and a 4× Ulight®-anti-cAMP solution (consisting of an anti-cAMP monoclonal antibody labelled with Ulight™ dye) was prepared according to the manufacturer's protocol (PerkinElmer LANCE Ultra cAMP kit). Following this incubation, 5 mcL europium labelled cAMP and 5 mcL Ulight anti-cAMP antibody was added to wells. The plate was covered with an adhesive cover to prevent evaporation and incubated for 60 minutes at room temperature in the dark. Plates were read on an Envision fluorescent plate reader (PerkinElmer).
# (§4) Test values were first normalized to the forskolin induced cAMP system maximum and system minimum averaged values in Excel using the formula: (test value−system minavg)/(system maxavg−system minavg)*100. Normalized test values represent a baseline corrected percentage of the system maximum cAMP response induced by forskolin. Normalized data was analyzed from triplicate tests and used to estimate the EC50 for each peptide on each receptor. Data was fit in GraphPad Prism software (v7.04) using a 4-parameter logistic curve model: Y=Bottom+(Top−Bottom)/(1+10^((Log EC50−X))). The Hill slope was constrained to 1.0. EC50 values were converted to pEC50 values using the formula: pEC50=−Log (EC50).
# [2] = Acute food intake inhibition after SC bolus injection (BioDAQ); details: Long Evans rats on 45% high fat diet
# [3] = in vivo; design: species or system Sprague-Dawley rats; details: rat, iv, 0.033 mg/kg
# Outline: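 Male Sprague-Dawley rats, non-fasted (n=3), given peptide in saline as 1-h IV or SC infusion at 0.033 mg/kg, or SC bolus at 0.3 mg/kg; jugular blood to 48 h into K2EDTA plus protease inhibitors. Plasma extracted by precipitation or WCX solid-phase extraction, quantified by UPLC-MS/MS against standards in matching rat plasma.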
# [4] = molecular target: human amylin 3 receptor (hAMY3R) (Homo sapiens, UniProt O60896+P30988); assay: cAMP accumulation functional assay in HEK293-CNG cells expressing hAMY3R; assay type: cell-based
# Sequence of human amylin 3 receptor (hAMY3R) (O60896 24-148, one chain of several): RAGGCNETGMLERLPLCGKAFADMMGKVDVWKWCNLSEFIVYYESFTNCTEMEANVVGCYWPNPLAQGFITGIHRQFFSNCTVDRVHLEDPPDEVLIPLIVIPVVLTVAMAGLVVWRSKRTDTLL
# Description: as §1, §2, §3, §4
# [5] = hCTR 0% HSA, 0% HSA, read-out: pEC50 hCTR 0% HSA (converted)
# [6] = hCTR 4% HSA, 4% HSA, read-out: pEC50 hCTR 4% HSA (converted)
# [7] = 4% HSA, read-out: pEC50 hAMY3R 4% HSA (converted)
# [8] = pEC50 hAMY3R 0.1% HSA, 0.1% HSA
# [9] = 0% HSA, read-out: pEC50 hAMY3R 0% HSA (converted)
"EC50 [1, 5]","EC50 ([1]; hCTR 0.1% HSA, 0.1% HSA)","EC50 [1, 6]",Vd [3],clearance [3],half-life [3],"EC50 [4, 7]","EC50 [4, 8]","EC50 [4, 9]",Structure (SMILES),Acute Food Intake % Inhibition vs vehicle ([2]; 0-24 hr after acute SC dosing),Acute Food Intake % Inhibition vs vehicle ([2]; 25-48 hr after acute SC dosing)
15.8 pM,316 pM,15800 pM,0.137 L/kg,8.1 mL/h/kg,15 h,631 pM,15.8 pM,–,CCCCCCCCCCCCCCCC(=O)N[C@@H](CCC(=O)N[C@@H](CCC(=O)N[C@@H](CCC(=O)N[C@@H](CCC(=O)NCCOCCOCC(=O)NCCOCCOCC(=O)N[C@@H](CCC(=O)NCCCC[C@H](NC(=O)[C@H](CCC(=O)O)NC(=O)[C@H](CC(N)=O)NC(=O)[C@H](C)NC(=O)[C@H](CC(C)C)NC(=O)[C@H](CCCNC(=N)N)NC(=O)[C@H](CCC(N)=O)NC(=O)[C@@H](NC(=O)[C@H](C)NC(=O)[C@@H]1CSSC[C@H](NC(=O)[C@@H](N)CO)C(=O)N[C@@H](CC(N)=O)C(=O)N[C@@H]([C@@H](C)O)C(=O)N[C@@H](CO)C(=O)N[C@@H]([C@@H](C)O)C(=O)N1)[C@@H](C)O)C(=O)N[C@@H](Cc1c[nH]cn1)C(=O)N[C@@H](CCCCN)C(=O)N[C@@H](CO)C(=O)N[C@@H](CO)C(=O)N[C@@H](CC(N)=O)C(=O)N[C@@H](CC(N)=O)C(=O)N[C@@H](Cc1ccccc1)C(=O)NCC(=O)N1CCC[C@H]1C(=O)N[C@H](C(=O)N[C@@H](CC(C)C)C(=O)N1CCC[C@H]1C(=O)N1CCC[C@H]1C(=O)N[C@H](C(=O)N[C@@H](CCCCN)C(=O)N[C@H](C(=O)NCC(=O)N[C@@H](CO)C(=O)N[C@@H](CCC(=O)O)C(=O)N[C@H](C(=O)N[C@@H](Cc1ccc(O)cc1)C(N)=O)[C@@H](C)O)C(C)C)[C@@H](C)O)[C@@H](C)CC)C(=O)O)C(=O)O)C(=O)O)C(=O)O)C(=O)O [Compound A5] (H-SCNTSTCATQRLANEK([γGlu-AEEA-AEEA-γGlu-γGlu-γGlu-γGlu-Palmitoyl])HKSSNNFGPILPPTKVGSETY-NH2; disulfide 2-7; N-terminus assumed),37%,–
–,–,–,0.159 L/kg,7.14 mL/h/kg,17.4 h,–,–,–,CC[C@H](C)[C@H](NC(=O)[C@@H]1CCCN1C(=O)CNC(=O)[C@H](Cc1ccccc1)NC(=O)[C@H](CC(N)=O)NC(=O)[C@H](CC(N)=O)NC(=O)[C@H](CO)NC(=O)[C@H](CO)NC(=O)[C@H](CCCCN)NC(=O)[C@H](Cc1c[nH]cn1)NC(=O)[C@H](CC(C)C)NC(=O)[C@H](CCCCNC(=O)COCCOCNC(=O)COCCOCNC(=O)CC[C@H](NC(=O)CCCCCCCCCCCCCCCCC(=O)O)C(=O)O)NC(=O)[C@H](CC(N)=O)NC(=O)[C@H](C)NC(=O)[C@H](CC(C)C)NC(=O)[C@H](CCCNC(=N)N)NC(=O)[C@H](CCC(N)=O)NC(=O)[C@@H](NC(=O)[C@H](C)NC(=O)[C@@H]1CSSC[C@H](NC(=O)[C@@H](N)CO)C(=O)N[C@@H](CC(N)=O)C(=O)N[C@@H]([C@@H](C)O)C(=O)N[C@@H](CO)C(=O)N[C@@H]([C@@H](C)O)C(=O)N1)[C@@H](C)O)C(=O)N[C@@H](CC(C)C)C(=O)N1CCC[C@H]1C(=O)N1CCC[C@H]1C(=O)N[C@H](C(=O)N[C@@H](CCCCN)C(=O)N[C@H](C(=O)NCC(=O)N[C@@H](CO)C(=O)N[C@@H](CCC(=O)O)C(=O)N[C@H](C(=O)N[C@@H](Cc1ccc(O)cc1)C(N)=O)[C@@H](C)O)C(C)C)[C@@H](C)O [Compound A98] (H-SCNTSTCATQRLANK(X2)LHKSSNNFGPILPPTKVGSETY-NH2; disulfide 2-7; N-terminus assumed),23%,24%
31.6 pM,7940 pM,79400 pM,0.14 L/kg,4.75 mL/h/kg,21.4 h,25100 pM,1580 pM,7.94 pM,CC[C@H](C)[C@H](NC(=O)[C@@H]1CCCN1C(=O)CNC(=O)[C@H](Cc1ccccc1)NC(=O)[C@H](CC(N)=O)NC(=O)[C@H](CC(N)=O)NC(=O)[C@H](CO)NC(=O)[C@H](CO)NC(=O)[C@H](CCCCN)NC(=O)[C@H](Cc1c[nH]cn1)NC(=O)[C@H](CC(C)C)NC(=O)[C@@H](CCCCNC(=O)CC[C@H](NC(=O)CC[C@H](NC(=O)COCCOCCNC(=O)CC[C@H](NC(=O)CCCCCCCCCCCCCCCCCCC(=O)O)C(=O)O)C(=O)O)C(=O)O)NC(=O)[C@H](CC(N)=O)NC(=O)[C@H](C)NC(=O)[C@H](CC(C)C)NC(=O)[C@H](CCCNC(=N)N)NC(=O)[C@H](CCC(N)=O)NC(=O)[C@@H](NC(=O)[C@H](C)NC(=O)[C@@H]1CSSC[C@H](NC(=O)[C@@H](N)CO)C(=O)N[C@@H](CC(N)=O)C(=O)N[C@@H]([C@@H](C)O)C(=O)N[C@@H](CO)C(=O)N[C@@H]([C@@H](C)O)C(=O)N1)[C@@H](C)O)C(=O)N[C@@H](CC(C)C)C(=O)N1CCC[C@H]1C(=O)N1CCC[C@H]1C(=O)N[C@H](C(=O)N[C@@H](CCCCN)C(=O)N[C@H](C(=O)NCC(=O)N[C@@H](CO)C(=O)N[C@@H](CCC(=O)O)C(=O)N[C@H](C(=O)N[C@@H](Cc1ccc(O)cc1)C(N)=O)[C@@H](C)O)C(C)C)[C@@H](C)O [Compound A100] (H-SCNTSTCATQRLAN[dK]([γGlu-γGlu-AEEA-γGlu-C20 diacid])LHKSSNNFGPILPPTKVGSETY-NH2; disulfide 2-7; N-terminus assumed),–,–
12.6 pM,3160 pM,31600 pM,0.0998 L/kg,2.45 mL/h/kg,32.6 h,10000 pM,501 pM,2.51 pM,CC[C@H](C)[C@H](NC(=O)[C@@H]1CCCN1C(=O)CNC(=O)[C@H](Cc1ccccc1)NC(=O)[C@H](CC(N)=O)NC(=O)[C@H](CC(N)=O)NC(=O)[C@H](CO)NC(=O)[C@H](CO)NC(=O)[C@H](CCCCN)NC(=O)[C@H](Cc1c[nH]cn1)NC(=O)[C@H](CC(C)C)NC(=O)[C@H](CCC(=O)O)NC(=O)[C@H](CC(N)=O)NC(=O)[C@H](C)NC(=O)[C@H](CC(C)C)NC(=O)[C@H](CCCNC(=N)N)NC(=O)[C@H](CCC(N)=O)NC(=O)[C@@H](NC(=O)[C@H](C)NC(=O)[C@@H]1CSSC[C@H](NC(=O)[C@@H](N)CCCCNC(=O)CC[C@H](NC(=O)CC[C@H](NC(=O)COCCOCCNC(=O)COCCOCCNC(=O)CC[C@H](NC(=O)CCCCCCCCCCCCCCCCCCC(=O)O)C(=O)O)C(=O)O)C(=O)O)C(=O)N[C@@H](CC(N)=O)C(=O)N[C@@H]([C@@H](C)O)C(=O)N[C@@H](CO)C(=O)N[C@@H]([C@@H](C)O)C(=O)N1)[C@@H](C)O)C(=O)N[C@@H](CC(C)C)C(=O)N1CCC[C@H]1C(=O)N1CCC[C@H]1C(=O)N[C@H](C(=O)N[C@@H](CCCCN)C(=O)N[C@H](C(=O)NCC(=O)N[C@@H](CO)C(=O)N[C@@H](CCC(=O)O)C(=O)N[C@H](C(=O)N[C@@H](Cc1ccc(O)cc1)C(N)=O)[C@@H](C)O)C(C)C)[C@@H](C)O [Compound A112] (H-K([γGlu-γGlu-AEEA-AEEA-γGlu-C20 diacid])CNTSTCATQRLANELHKSSNNFGPILPPTKVGSETY-NH2; disulfide 2-7),–,–
